Reference: patent US8293909B2, “Compounds for the treatment of hepatitis C” (Bristol-Myers Squibb Company, priority 2008, dated 2012)

What was measured:
HCV replicon cells = test: HCV replicon assay (FRET or luciferase readout); assay type: cell-based; conditions: Hepatitis C virus
Method in brief: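 Trypsinized replicon cells were seeded with compound titrations and incubated at 37 °C for various times. Alamar blue was added to gauge toxicity. Plates were then rinsed and either lysed with FRET peptide reagent for kinetic fluorescence reading or switched to phenol red-free DMEM for luciferase measurement.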

[1] = biological target: T1, HCV NS5B RdRp genotype 1b (Hepatitis C virus genotype 1b, UniProt Q9WMX2); test: HCV NS5B RdRp enzyme assay (standard / modified); assay type: biochemical; conditions: HCV NS5B genotype 1b
T1 construct: The protein was expressed with an 18 amino acid C-terminal truncation to enhance the solubility; made in house; host or cells: E. coli BL21(DE3), pET21a vector
T1 sequence (Q9WMX2 2420-2992): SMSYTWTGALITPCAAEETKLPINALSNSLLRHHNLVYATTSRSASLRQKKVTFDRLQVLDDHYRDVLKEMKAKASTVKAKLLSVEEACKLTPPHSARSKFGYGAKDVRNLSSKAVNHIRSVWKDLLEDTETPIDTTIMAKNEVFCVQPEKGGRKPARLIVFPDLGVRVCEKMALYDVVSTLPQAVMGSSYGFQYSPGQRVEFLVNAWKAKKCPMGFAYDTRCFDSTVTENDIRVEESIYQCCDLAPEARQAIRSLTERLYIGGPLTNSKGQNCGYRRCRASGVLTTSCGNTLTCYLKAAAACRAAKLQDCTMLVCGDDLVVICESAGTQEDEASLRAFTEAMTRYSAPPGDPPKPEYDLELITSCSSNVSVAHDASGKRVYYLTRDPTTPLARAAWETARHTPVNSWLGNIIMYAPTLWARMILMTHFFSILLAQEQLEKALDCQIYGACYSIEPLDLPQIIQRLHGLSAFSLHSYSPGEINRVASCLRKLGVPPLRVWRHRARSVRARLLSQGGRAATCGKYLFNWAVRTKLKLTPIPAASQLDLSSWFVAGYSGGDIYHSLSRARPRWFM
Method in brief: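 Genotype 1b NS5B with an 18-aa C-terminal truncation, expressed in E. coli, was tested by SPA incorporation of 3H-UTP (0.29 μM) on polyA/biotin-oligo-dT12. Standard assay: 28 nM enzyme, 6 nM template, 180 nM primer, 60 min at 30 °C, pH 7.5, 2% DMSO. Modified assay: 14 nM enzyme added to compound first, 0.2 nM template, 20 nM bead-precaptured primer, 4 h at 30 °C. IC50 used seven inhibitor concentrations.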

HCV = conditions: cited from earlier work
1 a replicon = test: HCV replicon luciferase reporter assay, 384 plate protocol, 1a replicon; assay type: cell-based; conditions: Hepatitis C virus; Table 1; *384 plate protocol and a 1 a replicon
Procedure: The HCV replicon luciferase assay was developed to monitor the inhibitory effects of compounds described in the disclosure on HCV viral replication. Utilization of a replicon luciferase reporter assay was first described by Krieger et al (Krieger N, Lohmann V, and Bartenschlager R, J. Virol. 75(10):4614-4624 (2001)). HUH-7 cells, constitutively expressing the HCV replicon, were grown in Dulbecco's Modified Eagle Media (DMEM) (Gibco-BRL) containing 10% Fetal calf serum (FCS) (Sigma) and 1 mg/ml G418 (Gibco-BRL). Compounds were serially diluted 3 folds in DMSO for a twenty-point titration and subsequently transferred to sterile 384-well tissue-culture treated plates (Corning cat #3571). The plates were then seeded with 50 μl of cells at a density of 3.0×10^3 cells/well in DMEM containing 4% FCS (final DMSO concentration at 0.5%). After 3 days incubation at 37° C., cells were analyzed for Renilla Luciferase activity using the EnduRen as substrate (Promega cat #E6485). The EnduRen substrate was diluted in DMEM and then added to the plates to a final concentration of 7.5 μM. The plates were incubated for 2 hrs at 37° C. and then read immediately for 30 seconds with Viewlux Imager (PerkinElmer) using a luminescence program. […] The fluorescence signal from each well was read, with an excitation wavelength at 525/10 nm and an emission wavelength of 598/10 nm, using the Viewlux Imager.

[2] = system: HCV replicon in HUH-7 cells; test: HCV replicon luciferase reporter assay, 384 well plate protocol; assay type: cell-based; conditions: Hepatitis C virus, Table 2
Procedure: The HCV replicon luciferase assay was developed to monitor the inhibitory effects of compounds described in the disclosure on HCV viral replication. Utilization of a replicon luciferase reporter assay was first described by Krieger et al (Krieger N, Lohmann V, and Bartenschlager R, J. Virol. 75(10):4614-4624 (2001)). HUH-7 cells, constitutively expressing the HCV replicon, were grown in Dulbecco's Modified Eagle Media (DMEM) (Gibco-BRL) containing 10% Fetal calf serum (FCS) (Sigma) and 1 mg/ml G418 (Gibco-BRL). Compounds were serially diluted 3 folds in DMSO for a twenty-point titration and subsequently transferred to sterile 384-well tissue-culture treated plates (Corning cat #3571). The plates were then seeded with 50 μl of cells at a density of 3.0×10^3 cells/well in DMEM containing 4% FCS (final DMSO concentration at 0.5%). After 3 days incubation at 37° C., cells were analyzed for Renilla Luciferase activity using the EnduRen as substrate (Promega cat #E6485). The EnduRen substrate was diluted in DMEM and then added to the plates to a final concentration of 7.5 μM. The plates were incubated for 2 hrs at 37° C. and then read immediately for 30 seconds with Viewlux Imager (PerkinElmer) using a luminescence program. To assess cytotoxicity of compounds, CC50 values were generated by multiplexing the EnduRen-containing plates with Cell Titer-Blue (Promega, cat #G8082). 3 μl of Cell-Titer Blue was added to each well and incubated for 8 hrs at 37° C. The fluorescence signal from each well was read, with an excitation wavelength at 525/10 nm and an emission wavelength of 598/10 nm, using the Viewlux Imager.

Compound	EC50 (HCV replicon cells; Table 1)	IC50 ([1]; Table 1)	also measured
CNC(=O)c1c(-c2ccc(F)cc2)nn2ccc(-c3cccc(C(=O)NC(C)(C)c4ccccc4)c3)cc12	2 to 250 nM	2 to 250 nM	–
CNC(=O)c1c(-c2ccc(F)cc2)nn2ccc(NC(=O)c3cccc(OC)c3)cc12	> 10000 nM	> 10000 nM	–
CNC(=O)c1c(-c2ccc(F)cc2)nn2ccc(NC(=O)c3ccccc3OC)cc12	> 10000 nM	> 10000 nM	–
CNC(=O)c1c(-c2ccc(F)cc2)nn2ccc(NC(=O)c3ccc(OC)cc3)cc12	> 10000 nM	> 10000 nM	–
CNC(=O)c1c(-c2ccc(F)cc2)nn2ccc(-n3ccc(C(=O)NC(C)(C)c4ccccc4)c3)cc12	> 10000 nM	1000 to 10000 nM	–
CNC(=O)c1c(-c2ccc(F)cc2)nc2ccc(-c3cccc(C(=O)O)c3)cn12	> 10000 nM	> 10000 nM	–
CNC(=O)c1c(-c2ccc(F)cc2)nc2ccc(-c3cccc(C(=O)NC(C)(C)c4ccccc4)c3)cn12	2 to 250 nM	2 to 250 nM	–
CNC(=O)c1c(-c2ccc(F)cc2)nc2ccc(-c3cccc(C(=O)NC4(c5ccccc5)CC4)c3)cn12	2 to 250 nM	2 to 250 nM	–
CNC(=O)c1c(-c2ccc(F)cc2)n(C)c2ccc(-c3cccc(C(=O)NC(C)(C)c4ccccc4)c3)cc12	> 10000 nM	> 10000 nM	–
CNC(=O)c1c(-c2ccc(F)cc2)sc2ccc(-c3cccc(C(=O)NC4(c5ccccc5)CCC4)c3)cc12	2 to 250 nM	2 to 250 nM	–
CNC(=O)c1c(-c2ccc(F)cc2)sc2ccc(-c3cccc(C(=O)NC(C)(C)c4ccccc4)c3)cc12	250 to 1000 nM	2 to 250 nM	–
CNC(=O)c1c(-c2ccc(F)cc2)sc2ccc(-c3cccc(C(=O)NC4(c5ccccc5)CC4)c3)cc12	1000 to 10000 nM	250 to 1000 nM	–
CNC(=O)c1c(-c2ccc(F)cc2)oc2cc(N(CCO)S(C)(=O)=O)c(C3CC3)cc12 [HCV-796]	–	–	hepatic toxicity (HCV; extended dosing of the combination regimens with interferon and ribavirin): hepatic toxicity observed during extended dosing of the combination regimens; HCV RNA levels in patients (HCV; patients): showed an ability to reduce HCV RNA levels in patients
CNC(=O)c1c(-c2ccc(F)cc2)nn2cc(N(CCO)S(C)(=O)=O)c(OC)cc12 [drawing 50]	1000 to 10000 nM	1000 to 10000 nM	–
CNC(=O)c1c(-c2ccc(F)cc2)nc2ccc(-c3cccc(C(=O)NC(C)(C)C)c3)cn12 [drawing 77]	250 to 1000 nM	250 to 1000 nM	–
CNC(=O)c1c(-c2ccc(F)cc2)[nH]c2ccc(-c3cccc(C(=O)NC(C)(C)c4ccccc4)c3)cc12 [drawing 80]	250 to 1000 nM	250 to 1000 nM	–
CNC(=O)c1c(-c2ccc(F)cc2)sc2ccc(-c3cccc(C(=O)NC(C)(C)C)c3)cc12 [drawing 85]	1000 to 10000 nM	> 4170 nM	–
CNC(=O)c1c(-c2ccc(F)cc2)nn2cc(N(CCO)S(C)(=O)=O)c(-c3cccc(C(=O)NC4(c5ccccn5)CC4)c3)cc12 [drawing 86]	1000 to 10000 nM	2 to 250 nM	–
CNC(=O)c1c(-c2ccc(F)cc2)nn2ccc(-c3cc(C(=O)NC4(c5ccccc5)CC4)ccc3C)cc12 [drawing 87]	2 to 250 nM	2 to 250 nM	–
CNC(=O)c1c(-c2ccc(F)cc2)nn2ccc(-c3cc(C(=O)NC4(c5ccccn5)CC4)ccc3C)cc12 [drawing 88]	2 to 250 nM	2 to 250 nM	–
CCN(c1cn2nc(-c3ccc(F)cc3)c(C(=O)NC)c2cc1-c1cccc(C(=O)NC(C)(C)c2ccccc2)c1)S(C)(=O)=O [drawing 92]	2 to 250 nM	2 to 250 nM	–
CNC(=O)c1c(-c2ccc(F)cc2)oc2ncc(-c3cc(C(=O)NC4(c5ccccn5)CC4)ccc3Cl)cc12 [drawing 113]	2 to 250 nM	2 to 250 nM	–
CNC(=O)c1c(-c2ccc(F)cc2)oc2ncc(-c3cc(C(=O)NC4(c5ccccn5)CC4)ccc3C)cc12 [drawing 116]	2 to 250 nM	2 to 250 nM	–
CNC(=O)c1c(-c2ccc(F)cc2)nn2ccc(-c3cc(C(=O)NC4(c5ccccc5)CC4)ccc3C)c(F)c12 [drawing 127]	2 to 250 nM	2 to 250 nM	–

Compound	EC50 (HCV replicon cells; Table 1)	IC50 ([1]; Table 1)	also measured
CNC(=O)c1c(-c2ccc(F)cc2)nn2ccc(-c3cc(C(=O)NC4(c5ccccn5)CC4)ccc3C)c(F)c12 [drawing 130]	2 to 250 nM	2 to 250 nM	–
CNC(=O)c1c(-c2ccc(F)cc2)nn2ccc(-c3cc(C(=O)NC4(c5ccccc5)CC4)c(OC)cc3C)c(F)c12 [drawing 134]	2 to 250 nM	2 to 250 nM	–
CNC(=O)c1c(-c2ccc(F)cc2)nn2ccc(-c3cc(C(=O)NC4(c5ccccn5)CC4)c(OC)cc3C)c(F)c12 [drawing 135]	2 to 250 nM	2 to 250 nM	–
CNC(=O)c1c(-c2ccc(F)cc2)nc2ccc(C3CC3C(=O)NC3(c4ccccn4)CC3)cn12 (stereo not shown) [drawing 159]	> 10000 nM	> 10000 nM	–
CNC(=O)c1c(-c2ccc(F)cc2)nc2ccc(-c3ccc(-c4ccccc4Cl)c(C(=O)NCC(C)C)c3)cn12 [drawing 163]	–	–	EC50 (1 a replicon): 250 to 1000 nM
CNC(=O)c1c(-c2ccc(F)cc2)nc2ccc(-c3cc(C(=O)NC4(c5ccccn5)CC4)c(OC)cc3Cl)cn12 [drawing 164]	–	–	EC50 (1 a replicon): 2 to 250 nM
CNC(=O)c1c(-c2ccc(F)cc2)nn2ccc(-c3cc(C(=O)NC4(c5ccccc5)CC4)ccc3C)cc12 [drawing 173]	–	–	EC50 (HCV replicon cells; Table 2): 2.37 nM; IC50 ([1]; Table 2): 4.75 nM
CNC(=O)c1c(-c2ccc(F)cc2)nn2ccc(-c3cc(C(=O)NC4(c5ccccc5)CC4)c(OC)cc3C)c(F)c12 [drawing 174]	–	–	EC50 (HCV replicon cells; Table 2): 3.92 nM; IC50 ([1]; Table 2): 10 nM
CNC(=O)c1c(-c2ccc(F)cc2)nn2ccc(-c3cc(C(=O)NC4(c5ccccc5)CC4)cc(F)c3C)c(F)c12 [drawing 175]	–	–	EC50 (HCV replicon cells; Table 2): 4.32 nM; IC50 ([1]; Table 2): 30 nM
CCN(c1cn2nc(-c3ccc(F)cc3)c(C(=O)NC)c2cc1-c1cccc(C(=O)NC(C)(C)c2ccccc2)c1)S(C)(=O)=O [drawing 176]	–	–	EC50 (HCV replicon cells; Table 2): 5.98 nM; IC50 ([1]; Table 2): 9.6 nM
CNC(=O)c1c(-c2ccc(F)cc2)nn2ccc(-c3cc(C(=O)NC4(c5ccccn5)CC4)ccc3C)c(F)c12 [drawing 177]	–	–	EC50 (HCV replicon cells; Table 2): 7.15 nM; IC50 ([1]; Table 2): 5 nM
CNC(=O)c1c(-c2ccc(F)cc2)nn2ccc(-c3cc(C(=O)NC4(c5ccccn5)CC4)c(OC)cc3C)c(F)c12 [drawing 178]	–	–	EC50 (HCV replicon cells; Table 2): 8.39 nM; IC50 ([1]; Table 2): 20 nM
CNC(=O)c1c(-c2ccc(F)cc2)nn2ccc(-c3cc(C(=O)NC4(c5ccccn5)CC4)ccc3C)cc12 [drawing 179]	–	–	EC50 (HCV replicon cells; Table 2): 10 nM; IC50 ([1]; Table 2): 5.15 nM
CNC(=O)c1c(-c2ccc(F)cc2)nc2ccc(-c3cccc(C(=O)NC(C)(C)C)c3)cn12 [drawing 180]	–	–	EC50 (HCV replicon cells; Table 2): 400 nM; IC50 ([1]; Table 2): 640 nM
CNC(=O)c1c(-c2ccc(F)cc2)[nH]c2ccc(-c3cccc(C(=O)NC(C)(C)c4ccccc4)c3)cc12 [drawing 181]	–	–	EC50 (HCV replicon cells; Table 2): 460 nM; IC50 ([1]; Table 2): 720 nM
CNC(=O)c1c(-c2ccc(F)cc2)nn2cc(N(CCO)S(C)(=O)=O)c(-c3cccc(C(=O)NC4(c5ccccn5)CC4)c3)cc12 [drawing 182]	–	–	EC50 (HCV replicon cells; Table 2): 1560 nM; IC50 ([1]; Table 2): 60 nM
CNC(=O)c1c(-c2ccc(F)cc2)sc2ccc(-c3cccc(C(=O)NC(C)(C)C)c3)cc12 [drawing 183]	–	–	EC50 (HCV replicon cells; Table 2): 1860 nM; IC50 ([1]; Table 2): > 4170 nM
CNC(=O)c1c(-c2ccc(F)cc2)nn2cc(N(CCO)S(C)(=O)=O)c(OC)cc12 [drawing 184]	–	–	EC50 (HCV replicon cells; Table 2): 3990 nM; IC50 ([1]; Table 2): 2920 nM
CNC(=O)c1c(-c2ccc(F)cc2)nn2ccc(-c3cc(C(=O)NC4(c5ccccc5)CC4)ccc3C)c(F)c12 [drawing 185]	–	–	EC50 [2]: 0.85 nM
CNC(=O)c1c(-c2ccc(F)cc2)oc2ncc(-c3cc(C(=O)NC4(c5ccccn5)CC4)ccc3C)cc12 [drawing 186]	–	–	EC50 [2]: 2.04 nM; IC50 ([1]; Table 2): 4.65 nM
CNC(=O)c1c(-c2ccc(F)cc2)oc2ncc(-c3cc(C(=O)NC4(c5ccccn5)CC4)ccc3Cl)cc12 [drawing 187]	–	–	EC50 [2]: 1.5 nM
alpha-interferon and ribavirin	–	–	sustained efficacy (HCV; combination therapy): 40 % of patients
pegylated alpha-interferon	–	–	clinical efficacy compared with unmodified alpha-interferon (HCV; monotherapy): superior to unmodified alpha-interferon as monotherapy
